The results in this text go back to PubChem BioAssay (NCI).

The structures appear in SMILES notation.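 Interpolation was linear, between the two tested concentrations surrounding the appropriate level; five concentrations were tested over 48 hours in 96-well plates. TGI denotes the concentration required for complete inhibition of growth.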 A value given as a limit tells only on which side of the number the result lay.

Among the test systems are CAKI-1 renal; DLD-1 colon; DMS 114 small cell lung; LXFL 529 NSCLC; M19-MEL melanoma; NCI-H23 lung; RPMI-8226 leukemia; RXF 393 renal; SF-268 CNS; SF-539 CNS; SK-MEL-28 melanoma; UACC-257 melanoma.
What all share (assay): NCI-60 cell line screen, 48 h

As to `COC(=O)C(=O)C(C#N)c1nc2ccccc2s1` (stereo not drawn), the TGI in the experiment on CAKI-1 renal, in the experiment with DLD-1 colon, in the experiment with DMS 114 small cell lung, in the experiment on LXFL 529 NSCLC, with M19-MEL melanoma and with NCI-H23 lung was > 100 µM throughout. Also, the TGI in the experiment on RPMI-8226 leukemia, in the experiment with RXF 393 renal, in the experiment on SF-268 CNS, with SF-539 CNS, with SK-MEL-28 melanoma and in the experiment with UACC-257 melanoma was > 100 µM each time.

`Cc1cc(N(CCC#N)CCC#N)ccc1/C=C(\NC(=O)/C=C/c1ccccc1)C(=O)N=[N+]=[N-]`: the TGI with CAKI-1 renal, with DLD-1 colon, with DMS 114 small cell lung, with LXFL 529 NSCLC, in the experiment on M19-MEL melanoma and in the experiment on NCI-H23 lung was > 100 µM each time. Moreover, the TGI with RPMI-8226 leukemia was > 100 µM; with RXF 393 renal, 98.5 µM; with SF-268 CNS it was > 100 µM; with SF-539 CNS, > 100 µM; with SK-MEL-28 melanoma, > 100 µM; in the experiment with UACC-257 melanoma, > 100 µM.

Turning to `Cc1c2cnccc2c(C)c2c1c1ccccc1n2CCOC(=O)c1ccccc1`, the TGI was determined as 28 µM with CAKI-1 renal; 49.3 µM in the experiment on DLD-1 colon; 30.6 µM in the experiment on DMS 114 small cell lung; 31.8 µM with M19-MEL melanoma; 54.7 µM in the experiment with NCI-H23 lung; 42 µM in the experiment with RPMI-8226 leukemia. The TGI was 27.3 µM in the experiment with RXF 393 renal; 79.5 µM in the experiment with SF-268 CNS; 20.9 µM with SF-539 CNS; 47.2 µM in the experiment on SK-MEL-28 melanoma; 42 µM with UACC-257 melanoma.

Regarding `CC(=O)C1(O)CC2(c3ccccc3)C(=O)C1(c1ccccc1)C(c1ccccc1)=C2c1ccccc1` (stereo not drawn), the TGI in the experiment on CAKI-1 renal, in the experiment with DLD-1 colon, in the experiment with DMS 114 small cell lung, in the experiment on LXFL 529 NSCLC, in the experiment on M19-MEL melanoma and in the experiment with NCI-H23 lung was > 100 µM in each case. For the same molecule, the TGI with RPMI-8226 leukemia, in the experiment on RXF 393 renal, in the experiment with SF-268 CNS, in the experiment on SF-539 CNS and in the experiment with UACC-257 melanoma was > 100 µM each time.

As for `C/C(=N/NC(=O)c1ccccc1S(N)(=O)=O)C(CN1CCCCC1)C(C1=C(O)C2C=CC=CC2OC1=O)c1ccccc1` (stereo not drawn), the TGI in the experiment with CAKI-1 renal is > 100 µM; in the experiment with DLD-1 colon, > 100 µM; in the experiment on LXFL 529 NSCLC, > 100 µM; in the experiment on M19-MEL melanoma, > 100 µM; in the experiment with NCI-H23 lung, > 100 µM; in the experiment with RPMI-8226 leukemia it was 79 µM. Moreover, the TGI was 68.4 µM in the experiment with RXF 393 renal, > 100 µM with SF-268 CNS, > 100 µM in the experiment with SF-539 CNS and > 100 µM in the experiment with UACC-257 melanoma.

As to `COc1ccc2c(c1)[C@@H](NC(C)=O)CCc1cc(OC)c(OC)c(OC)c1-2`, the TGI is 99 µM in the experiment on CAKI-1 renal; > 100 µM in the experiment on DLD-1 colon; 0.366 µM in the experiment with DMS 114 small cell lung; > 100 µM in the experiment with LXFL 529 NSCLC; > 100 µM with M19-MEL melanoma; 2.88 µM in the experiment with NCI-H23 lung. Moreover, the TGI was > 100 µM in the experiment on RPMI-8226 leukemia; > 8.58 µM in the experiment with RXF 393 renal; > 90.4 µM in the experiment on SF-268 CNS; < 0.0154 µM in the experiment on SF-539 CNS; > 100 µM in the experiment on SK-MEL-28 melanoma; > 100 µM in the experiment with UACC-257 melanoma.

On to `Cc1ccc(S(=O)c2ccccc2[N+](=O)[O-])cc1` (stereo not drawn), for which the TGI in the experiment with CAKI-1 renal, in the experiment on DLD-1 colon, in the experiment with DMS 114 small cell lung, in the experiment with M19-MEL melanoma, in the experiment with NCI-H23 lung and in the experiment with RPMI-8226 leukemia was > 100 µM throughout. The TGI in the experiment with RXF 393 renal, with SF-539 CNS, with SK-MEL-28 melanoma and with UACC-257 melanoma was > 100 µM each time.

Regarding `CC(=O)N1C/C(=C\c2ccccc2)C(=O)/C(=C/c2ccccc2)C1`, the TGI in the experiment with CAKI-1 renal was determined as 35.5 µM; with DLD-1 colon it was 25.8 µM; in the experiment on LXFL 529 NSCLC, 21.6 µM; in the experiment with M19-MEL melanoma, 10.7 µM; in the experiment on NCI-H23 lung, 41.3 µM; with RPMI-8226 leukemia it was 4.79 µM. In addition, the TGI in the experiment with RXF 393 renal was 30.4 µM; in the experiment with SF-268 CNS, 66.1 µM; with SF-539 CNS, 34.3 µM; with SK-MEL-28 melanoma it was 27.5 µM; in the experiment with UACC-257 melanoma, 18.6 µM.

Take `N#CC(C(=O)CCCC(=O)Nc1ccccc1[N+](=O)[O-])c1c(Cl)cccc1Cl` (stereo not drawn): the TGI in the experiment on CAKI-1 renal, with DLD-1 colon, in the experiment with DMS 114 small cell lung, with LXFL 529 NSCLC, in the experiment on M19-MEL melanoma and in the experiment on NCI-H23 lung was > 100 µM each time. For the same molecule, the TGI in the experiment with RPMI-8226 leukemia, in the experiment on RXF 393 renal, with SF-268 CNS, in the experiment with SF-539 CNS, in the experiment with SK-MEL-28 melanoma and in the experiment on UACC-257 melanoma was > 100 µM each time.

As for `N/N=c1/nc2n(c3ncccc13)C=CNN2`, the TGI with CAKI-1 renal, in the experiment on DLD-1 colon, in the experiment on DMS 114 small cell lung, in the experiment on LXFL 529 NSCLC, in the experiment with NCI-H23 lung and in the experiment on RPMI-8226 leukemia was > 100 µM in each case. For the same molecule, the TGI in the experiment on RXF 393 renal, with SF-268 CNS, with SF-539 CNS, in the experiment with SK-MEL-28 melanoma and in the experiment with UACC-257 melanoma was > 100 µM throughout.

For the molecule `C[C@@H]1C(=O)CC2C(C)(C)CCC[C@]2(C)[C@@]12CC[C@]1(C=COC1)O2` (stereo partly drawn), the TGI is > 100 µM in the experiment with CAKI-1 renal; > 100 µM with DMS 114 small cell lung; > 100 µM in the experiment on M19-MEL melanoma; 56.3 µM in the experiment with RXF 393 renal; > 100 µM in the experiment with SF-268 CNS; > 100 µM with SF-539 CNS.

Take `Cc1c(C(Cc2ccccc2N(C)C(=O)/C=C\C(=O)O)c2c[nH]c3ccccc23)c2ccccc2n1C` (stereo not drawn): the TGI was determined as 36 µM in the experiment with CAKI-1 renal; 35.2 µM in the experiment with DLD-1 colon; 27.5 µM with DMS 114 small cell lung; 26 µM in the experiment with LXFL 529 NSCLC; 30.5 µM with M19-MEL melanoma; 32.8 µM with NCI-H23 lung. The TGI in the experiment with RXF 393 renal amounted to 27.3 µM; in the experiment on SF-268 CNS, 35.9 µM; in the experiment on SF-539 CNS it was 31.8 µM; with UACC-257 melanoma, 31.5 µM.
